pIC50: −log10 of the molar value. Like-named read-outs stand apart in the source and are kept apart here.

One data set deals with STAT3 signaling. Nature of the data set: STAT3 Luciferase reporter gene assay. It counts as cell-based. The conditions noted are these: Homo sapiens; STAT3 reporter/HEK293 cell line, 1 h pretreatment, IL-6 induced for 16 h, luciferase activity; read-out: IC50. As for the experimental part: The ability to inhibit STAT3 signaling of the example compounds in comparison to galiellalactone was evaluated using a STAT3 Luciferase reporter gene assay.
Compounds were tested for dose response activity to determine IC50 at eight different doses (0.03, 0.1, 0.3, 1, 3, 10, 30 and 100 μM) in triplicate on the STAT3 reporter system.
Briefly, the STAT3 reporter/HEK293 cell line was plated in 96-well white plates for 16 h. Cells were pretreated with compounds for 1 h. Cells were then treated with IL-6 to induce STAT3 activation for 16 h. Luciferase activity was measured and analyzed.

Data set [1] has as its system IL-6 stimulated LNCaP prostate cancer cells. Nature of the data set: Inhibition of IL-6 stimulated LNCaP cell proliferation, MTT assay. The following applies: Homo sapiens, IL-6 stimulated LNCaP cells, read-out: GIC50. It counts as cell-based.
Data set [2] can be described thus: In vivo pharmacokinetics, plasma exposure after single oral dose. The following applies: CD1 mice, single oral gavage 10 mg/kg. As for the experimental part:
Pharmacokinetic (PK) studies were performed in CD1 mice to establish plasma exposure following administration of single oral doses of galiellalactone (GL) and example 1. Sample analysis was by LC-MS/MS. Dose solutions were prepared at a drug concentration of 0.5 mg/mL in 5% DMSO in 50 mM citrate buffer (citric acid/sodium citrate pH 4.0) and administered as a 20 mL/kg oral gavage (10 mg/kg).

A short description of data set [3]: Chemical stability in phosphate buffer solution (PBS). It is filed as physicochemical. The conditions noted are these: 37° C., 1 μM test concentration. As for the experimental part:
The chemical stability of example 20 and 28 in solution was determined in phosphate buffer solution (PBS) at 37° C. as outlined below.
A 4 μl volume of 100 μM stock solution of the study compound in 50% DMSO was added to 396 μl of PBS, to obtain 1 μM test concentration. The study compounds were incubated in PBS at 37° C. with 600 rpm shaking. The incubations were quenched (30, 60, and 120 min) using a two-fold volume of cold acetonitrile and analyzed. The samples (0, 30, 60, and 120 min) were analyzed using a Waters Acquity UPLC with Thermo Q-Exactive Focus Orbitrap and a Waters HSS T3 (2.1×50 mm, 1.7 μm particle size) column.

A further data set has as its system IL-6/STAT3 signaling. The following applies: cited from earlier work.

Usually AUC(0-inf) stands for total exposure, with the tail of the curve extrapolated. Read a low AUC(0-inf) as less exposure. A word on the AUC(0-t): it is exposure summed from dosing to a finite time, without extrapolation to infinity. The low end stands for less exposure, the high end for more exposure. A word on the half-life: it is the time needed for the level to fall by half in the phase considered. For orientation: Cmax means the highest concentration seen after dosing. Usually Tmax stands for the time from dosing to the highest level. Regarding `Cc1ccc(S(=O)(=O)N[C@@]2(C)C=C3C(=O)O[C@@H]4CC[C@H](C2)[C@]34O)cc1` [Example 1, N-[(4R,7R,9R,11S)-11-Hydroxy-9-methyl-2-oxo-3-oxatricyclo[5.3.1.0^4,11]undec-1(10)-en-9-yl]-4-methylbenzene-1-sulfonamide], the pIC50 with STAT3 signaling is 5.96. The pIC50 in data set [1] was 6.00. In data set [2] (mouse), this molecule returned an AUC(0-inf) of 157 ng·h/mL and an AUC(0-t) of 141 ng·h/mL. The half-life in data set [2] (mouse, read-out: Apparent half-life (converted)) was 2 h. For the same molecule, the Cmax in data set [2] (mouse, read-out: Cmax) was found to be 129 ng/mL. Moreover, the Tmax in data set [2] (mouse, read-out: Tmax) is 0.25 h.

Turning to `C[C@]1(NS(=O)(=O)c2ccc(C(F)(F)F)cn2)C=C2C(=O)O[C@@H]3CCC(C1)[C@]23O` (stereo partly drawn) [Example 20, N-[(4R,7R,9R,11S)-11-hydroxy-9-methyl-2-oxo-3-oxatricyclo[5.3.1.0^4,^11]undec-1(10)-en-9-yl]-5-(trifluoromethyl)pyridine-2-sulfonamide], the pIC50 in the data set on STAT3 signaling is 5.90. This molecule also showed a half-life at 1 μM in data set [3] of 5.82 h.

`C[C@]1(NS(=O)(=O)c2ccc(C(F)(F)F)cn2)C=C2C(=O)O[C@]3(C)CC[C@H](C1)[C@]23O` [Example 28, N-[(4R,7R,9R,11S)-11-hydroxy-4,9-dimethyl-2-oxo-3-oxatricyclo[5.3.1.0^4,11]undec-1 (10)-en-9-yl]-5-(trifluoromethyl)pyridine-2-sulfonamide]: the pIC50 in the data set on STAT3 signaling was 6.04. Further, the half-life at 1 μM in data set [3] was over 13.2 h.

Turning to `C[C@@H]1C=C2C(=O)O[C@@H]3CC[C@H](C1)[C@]23O` [Galiellalactone, (−)-Galiellalactone], the pIC50 with STAT3 signaling is 5.12; in data set [1] it was 5.55. The “inhibition of IL-6/STAT3 signaling” value in the data set on IL-6/STAT3 signaling is reported as “submicromolar”. The Cmax in data set [2] worked out at 52 ng/mL. In addition, the Tmax in data set [2] is on record as 0.5 h.

(Values after patent publication US10781197B2, “Sulfonamide analogues of galiellalactone” (GLACTONE PHARMA DEVELOPMENT AB, priority 2016, dated 2020).)
